Data taken from patent US9783532B2, “Molecules having certain pesticidal utilities, and intermediates, compositions, and processes related thereto” (Dow AgroSciences LLC, priority 2013, dated 2017).

Legend:
Format in all cases: in vivo
[1] = test system: Beet Armyworm (Spodoptera exigua) ("BAW"); assay: Bioassay on beet armyworm (BAW), 128-well diet tray assay; settings: 168 h, 50 μg/cm^2 on artificial diet, second instar BAW larvae, 25° C., five to seven days, average of eight wells, read-out: BAW % Control (or Mortality) rating
Outline: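 Second-instar larvae (one to five per well) were placed on artificial diet surface-treated with 50 μg/cm^2 compound applied in 90:10 acetone-water and dried, eight wells per compound. Held at 25° C., 14:10 light-dark for five to seven days; percent mortality was scored per well and averaged over the eight wells.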

[2] = test system: Cabbage Looper (Trichoplusia ni) ("CL"); assay: Bioassay on cabbage looper (CL), 128-well diet tray assay; settings: 168 h, 50 μg/cm^2 on artificial diet, second instar CL larvae, 25° C., five to seven days, average of eight wells, read-out: CL % Control (or Mortality) rating
Outline: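 Second-instar larvae (one to five per well) placed on artificial diet surface-treated with 50 μg/cm^2 compound in 90:10 acetone-water, dried before infestation. Held 25 °C, 14:10 light-dark for five to seven days; percent mortality scored per well and averaged over eight wells.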

[3] = test system: Yellow Fever Mosquito "YFM" (Aedes aegypti); settings: about 1 day-old larvae, 96-well plate, room temperature, 3 days, mortality
Outline: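 About 1 day-old Aedes aegypti larvae in liver-powder water added to wells holding compound diluted from 4000 ppm DMSO stock with 90:10 water:acetone, 6 replicate plates. Plates kept covered at room temperature for 3 days. Wells scored for mortality and reported as rating categories.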

SMILES	mortality at 50 µg/cm2 [1]	mortality at 50 µg/cm2 [2]	YFM % Control (or Mortality) rating [3]
CCc1cc(C)ccc1N1C(=O)CS/C1=N\C(=O)NCCc1ccc(-c2ncn(-c3ccc(OC(F)(F)F)cc3)n2)cc1 [P31, (Z)-1-(3-(2-ethyl-4-methylphenyl)-4-oxothiazolidin-2-ylidene)-3-(4-(1-(4-(trifluoromethoxy)phenyl)-1H-1,2,4-triazol-3-yl)phenethyl)urea]	50 to 100%	50 to 100%	A (80-100)
CC(Cc1ccc(-c2ncn(-c3ccc(OC(F)(F)F)cc3)n2)cc1)NC(=O)/N=C1\SCC(=O)N1c1ccc(F)cc1C(C)C (stereo not drawn) [P33, (Z)-1-(3-(4-fluoro-2-isopropylphenyl)-4-oxothiazolidin-2-ylidene)-3-(1-(4-(1-(4-(trifluoromethoxy)phenyl)-1H-1,2,4-triazol-3-yl)phenyl)propan-2-yl)urea]	50 to 100%	50 to 100%	A (80-100)
CCc1cccc(C)c1N1C(=O)CS/C1=N\C(=O)NC(C)Cc1ccc(-c2ncn(-c3ccc(OC(F)(F)F)cc3)n2)cc1 (stereo not drawn) [P42, (Z)-1-(3-(2-ethyl-1-methylphenyl)-4-oxothiazolidin-2-ylidene)-3-(1-(4-(1-(4-(trifluoromethoxy)phenyl)-1H-1,2,4-triazol-3-yl)phenyl)propan-2-yl)urea]	50 to 100%	50 to 100%	A (80-100)
COc1ccc(N2C(=O)CS/C2=N\C(=O)NC(C)Cc2ccc(-c3ncn(-c4ccc(OC(F)(F)F)cc4)n3)cc2)c(C)c1 (stereo not drawn) [P45, (Z)-1-(3-(4-methoxy-2-methylphenyl)-4-oxothiazolidin-2-ylidene)-3-(1-(4-(1-(4-(trifluoromethoxy)phenyl)-1H-1,2,4-triazol-3-yl)phenyl)propan-2-yl)urea]	50 to 100%	50 to 100%	A (80-100)
COc1cc(C)c(N2C(=O)CS/C2=N\C(=O)NCCc2ccc(-c3ncn(-c4ccc(OC(F)(F)F)cc4)n3)cc2)c(C)c1 [P47, (Z)-1-(3-(4-methoxy-2,6-dimethylphenyl)-4-oxothiazolidin-2-ylidene)-3-(4-(1-(4-(trifluoromethoxy)phenyl)-1H-1,2,4-triazol-3-yl)phenethyl)urea]	50 to 100%	50 to 100%	A (80-100)
CCc1ccc(C)cc1N1C(=O)CS/C1=N\C(=O)NCCc1ccc(-c2ncn(-c3ccc(OC(F)(F)F)cc3)n2)cc1 [P49, (Z)-1-(3-(2-ethyl-5-methylphenyl)-4-oxothiazolidin-2-ylidene)-3-(4-(1-(4-(trifluoromethoxy)phenyl)-1H-1,2,4-triazol-3-yl)phenethyl)urea]	50 to 100%	50 to 100%	A (80-100)
CCc1cccc(C)c1N1C(=O)CS/C1=N\C(=O)NCCc1ccc(-c2ncn(-c3ccc(OC(F)(F)F)cc3)n2)cc1 [P50]	50 to 100%	50 to 100%	A (80-100)
COc1ccc(C(C)C)c(N2C(=O)CS/C2=N\C(=O)NCCc2ccc(-c3ncn(-c4ccc(C(F)(F)F)cc4)n3)cc2)c1 [P53, (Z)-1-(3-(2-isopropyl-5-methoxyphenyl)-4-oxothiazolidin-2-ylidene)-3-(4-(4-(1-(4-trifluoromethyl)phenyl)-1H-1,2,4-triazol-3-yl)phenethyl)urea]	50 to 100%	50 to 100%	A (80-100)
Cc1ccc(C(C)C)c(N2C(=O)C(C)S/C2=N\C(=O)NCCc2ccc(-c3ncn(-c4ccc(OC(F)(F)F)cc4)n3)cc2)c1 (stereo not drawn) [P57, (Z)-1-(3-(2-isopropyl-5-methylphenyl)-5-methyl-4-oxothiazolidin-2-ylidene)-3-(4-(1-(4-(trifluoromethoxy)phenyl)-1H-1,2,4-triazol-3-yl)phenethyl)urea]	50 to 100%	50 to 100%	A (80-100)
Cc1ccc(C(C)C)c(-n2c(C)cs/c2=N\C(=O)NCCc2ccc(-c3ncn(-c4ccc(OC(F)(F)F)cc4)n3)cc2)c1 [P65, (Z)-1-(3-(2-isopropyl-5-methylphenyl)-4-methylthiazol-2(3H)-ylidene)-3-(4-(1-(4-(trifluoromethoxy)phenyl)-1H-1,2,4-triazol-3-yl)phenethyl)urea]	50 to 100%	50 to 100%	A (80-100)
Cc1ccc(C(C)C)c(N2C(=O)CS/C2=N\C(=O)NC(C)C(C)c2ccc(-c3ncn(-c4ccc(OC(F)(F)F)cc4)n3)cc2)c1 (stereo not drawn) [P66, P353, (Z)-1-(3-(2-isopropyl-5-methylphenyl)-4-oxothiazolidin-2-ylidene)-3-(3-(4-(1-(4-(trifluoromethoxy)phenyl)-1H-1,2,4-triazol-3-yl)phenyl)butan-2-yl)urea]	50 to 100%	50 to 100%	A (80-100)
CCc1cccc(C)c1N1C(=O)CS/C1=N\C(=O)NCCCc1ccc(-c2ncn(-c3ccc(OC(F)(F)F)cc3)n2)cc1 [P101, (Z)-1-(3-(2-ethyl-6-methylphenyl)-4-oxothiazolidin-2-ylidene)-3-(3-(4-(1-(4-(trifluoromethoxy)phenyl)-1H-1,2,4-triazol-3-yl)phenyl)propyl)urea]	0 to 50%	50 to 100%	D (No activity noticed in this bioassay)
Cc1ccccc1N1C(=O)CS/C1=N\C(=O)NCCCCc1ccc(-c2ncn(-c3ccc(OC(F)(F)F)cc3)n2)cc1 [P144, (Z)-1-(4-oxo-3-(o-tolyl)thiazolidin-2-ylidene)-3-(4-(4-(1-(4-(trifluoromethoxy)phenyl)-1H-1,2,4-triazol-3-yl)phenyl)butyl)urea]	50 to 100%	50 to 100%	A (80-100)
CC(C)c1ccccc1N1C(=O)CS/C1=N\C(=O)NCCCCc1ccc(-c2ncn(-c3ccc(OC(F)(F)F)cc3)n2)cc1 [P146, P208, (Z)-1-(3-(2-isopropylphenyl)-4-oxothiazolidin-2-ylidene)-3-(4-(4-(1-(4-(trifluoromethoxy)phenyl)-1H-1,2,4-triazol-3-yl)phenyl)butyl)urea]	50 to 100%	50 to 100%	A (80-100)
CCCc1ccc(C)cc1N1C(=O)CS/C1=N\C(=O)NCCCCc1ccc(-c2ncn(-c3ccc(OC(F)(F)F)cc3)n2)cc1 [P151, P842, (Z)-1-(3-(5-methyl-2-propylphenyl)-4-oxothiazolidin-2-ylidene)-3-(4-(4-(1-(4-(trifluoromethoxy)phenyl)-1H-1,2,4-triazol-3-yl)phenyl)butyl)urea]	50 to 100%	50 to 100%	A (80-100)
Cc1cccc(C)c1N1C(=O)CS/C1=N\C(=O)NCCCCc1ccc(-c2ncn(-c3ccc(OC(F)(F)F)cc3)n2)cc1 [P152, P1481, (Z)-1-(3-(2,6-dimethylphenyl)-4-oxothiazolidin-2-ylidene)-3-(4-(4-(1-(4-(trifluoromethoxy)phenyl)-1H-1,2,4-triazol-3-yl)phenyl)butyl)urea]	0%	50 to 100%	A (80-100)
